Calls of active or inactive are those of the source.
Tests used:
Beta-galactosidase = Beta-galactosidase (Escherichia coli, UniProt Q8VNN2); assay: Dose response counterscreen for EBI2 assay utilizing the enzyme, b-galactosidase.; assay type: functional
[1] = target: Eukaryotic translation initiation factor 4E (Mus musculus, UniProt P63073); assay: eIF4E–eIF4G protein interaction inhibitors, dose response, biochemical, TR-FRET (AID 855); assay type: functional;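 also: potency for disrupting eIF4E binding to eIF4GI seen as loss of FRET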
Chain of Eukaryotic translation initiation factor 4E (P63073 whole entry): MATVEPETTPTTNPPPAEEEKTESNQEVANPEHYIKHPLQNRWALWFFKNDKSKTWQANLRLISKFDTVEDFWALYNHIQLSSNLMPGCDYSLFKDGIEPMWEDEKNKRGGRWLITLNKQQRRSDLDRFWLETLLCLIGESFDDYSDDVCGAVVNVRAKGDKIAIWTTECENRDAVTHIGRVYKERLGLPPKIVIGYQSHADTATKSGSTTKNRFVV

[2] = cytotoxicity in KRAS-transformed pancreatic duct cells, primary screen, cell-based, fluorescence, HTS (AID 431); assay type: functional; details: Homo sapiens;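 also: cell line used: HPDE-C7K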
[3] = cytotoxicity in HPDE-C7 cells, cell-based, fluorescence, HTS (AID 430); assay type: functional; details: Homo sapiens
Kallikrein-7 = Kallikrein-7 (Homo sapiens, UniProt P49862); assay: Fluorescence Intensity-based biochemical primary high throughput dose response assay to identify activators of kallikrein-7 (K7) zymogen.
Chain of Kallikrein-7 (P49862 whole entry): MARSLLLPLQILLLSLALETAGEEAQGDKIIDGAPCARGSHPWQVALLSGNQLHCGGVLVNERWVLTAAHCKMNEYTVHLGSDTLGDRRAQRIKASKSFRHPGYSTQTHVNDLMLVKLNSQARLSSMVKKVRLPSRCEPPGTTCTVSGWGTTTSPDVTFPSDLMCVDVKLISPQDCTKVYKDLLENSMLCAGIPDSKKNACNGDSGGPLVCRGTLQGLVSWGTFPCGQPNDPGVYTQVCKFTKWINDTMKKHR

[4] = target: T1, Mannose-6-phosphate isomerase (Homo sapiens, UniProt P34949); assay: human PMI inhibitors, high substrate, primary screen, biochemical, fluorescence intensity, high mannose 6-phosphate (AID 1220)
T1 sequence (P34949 whole entry): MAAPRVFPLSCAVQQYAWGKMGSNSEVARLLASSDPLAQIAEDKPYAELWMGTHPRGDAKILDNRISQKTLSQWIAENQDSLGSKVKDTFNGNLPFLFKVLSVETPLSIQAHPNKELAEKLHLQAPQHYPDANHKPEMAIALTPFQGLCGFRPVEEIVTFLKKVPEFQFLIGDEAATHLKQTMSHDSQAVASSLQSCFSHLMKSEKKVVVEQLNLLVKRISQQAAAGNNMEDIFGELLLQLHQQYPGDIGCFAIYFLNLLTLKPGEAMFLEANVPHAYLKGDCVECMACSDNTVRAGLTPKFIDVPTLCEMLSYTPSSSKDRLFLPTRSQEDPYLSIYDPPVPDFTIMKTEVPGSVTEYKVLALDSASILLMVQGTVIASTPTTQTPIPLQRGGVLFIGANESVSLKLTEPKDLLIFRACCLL

cells = assay type: functional
[5] = THP-1 cell cytotoxicity, dose response, cytotoxicity control for non-replicating M. tuberculosis project (AID 489025); assay type: functional
[6] = CEM21 lymphoblast cell cytotoxicity, dose response, cytotoxicity control for viral fusion inhibitor project, CellTiter-Glo luminescence, cherry-picked (AID 652042); assay type: functional, cell-based;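 also: potency for signal decrease meaning cytotoxicity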
[7] = ZM109 Env clade C HIV-1 fusion inhibitors, dose response, HeLa effector, CEM target cells, luciferase, cherry-pick (AID 652058); assay type: functional, cell-based
[8] = inhibitors of clade B AD8 Env fusion, dose response, cell-based, cherry-pick (AID 652062); assay type: functional;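 also: luciferase signal from cell-cell fusion driven by HIV-1 clade B AD8 Env; potency is for inhibitors of fusion seen as a drop in luminescence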
[9] = off-target signal loss in HeLa-CEM21 co-culture – HeLa F-luc CTL cells, cherry-picked, counter-screen for HIV-1 Env fusion inhibitor project, dose response (AID 652040); assay type: functional, cell-based;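 also: potency for signal decrease marking cytotoxic or nonspecific inhibition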
[10] = inhibitors of HIV Env-driven cell fusion, dose response, cherry-pick (AID 652057); assay type: functional, cell-based
[11] = inhibitors of Vif binding to APOBEC3G peptide, primary screen, biochemical, TR-FRET, GST-Vif 1-94, biotin-A3G peptide, dose response retest (AID 1117319); assay type: functional;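 also: TR-FRET signal of purified GST-Vif binding a biotinylated A3G peptide; inhibitors lower the FRET signal by blocking Vif and A3G binding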
Protein Tat = target: T2, Protein Tat (Human immunodeficiency virus type 1 group M subtype B (isolate HXB2)(HIV-1), UniProt P04608); assay type: functional;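 also: tat binding to TAR RNA read out by fluorescence polarization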
T2 sequence (P04608 whole entry): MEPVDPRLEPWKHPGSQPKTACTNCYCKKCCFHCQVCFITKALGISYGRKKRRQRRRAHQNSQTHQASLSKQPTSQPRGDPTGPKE

[12] = target: T3, Endoribonuclease toxin MazF (Escherichia coli K-12, UniProt P0AE70); assay: MazF toxin RNase activators, dose response, biochemical, fluorescence, single-stranded RNA substrate, uHTS hits (AID 588481); assay type: functional
T3 sequence (P0AE70 whole entry): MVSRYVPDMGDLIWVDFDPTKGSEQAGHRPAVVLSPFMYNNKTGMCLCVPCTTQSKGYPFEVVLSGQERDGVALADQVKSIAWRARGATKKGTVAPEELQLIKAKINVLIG

[13] = target: T3, Endoribonuclease toxin MazF; assay: fluorescent RNA oligo signal without MazF, dose response, counter-screen for MazEF activator project, biochemical, fluorescence, single-stranded RNase substrate (AID 588502); assay type: functional
[14] = microbe, parasite or virus in culture; assay type: functional; details: Mycobacterium tuberculosis
[15] = Luminescence Cell-Based Dose Response HTS to Identify Inhibitors of 5'UTR Stem-Loop Driven Prion Protein mRNA Translation in H4 Neuroglioblastoma Cells. [Related pubchem assays: 1827 (Project Summary), 1813 (Primary HTS)]; assay type: functional
[16] = growth suppression of PTEN-null colon cells, dose response, cell-based, HCT116 PTEN knockout (AID 1047); assay type: functional;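 also: HCT116 colon tumor cells with PTEN knocked out; cells exposed to compound for 60 hours before readout; potency for loss of cell viability measured by luminescence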
[17] = growth suppression of beta-catenin-knockout colon cells, dose response, cell-based, HCT116, human colon tumor (AID 1045); assay type: functional;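 also: HCT116 colon tumor cells with beta catenin knocked out; cells exposed to compound for 60 hours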
[18] = Luminescence Cell-Based Dose Retest to Confirm Inhibitors of Cancer Stem Cells. [Related pubchem assays (depositor defined):AID2717, AID2721]; assay type: functional; details: Homo sapiens
[19] = target: T4, Corticotropin-releasing factor receptor 2/Corticotropin-releasing factor-binding protein (Homo sapiens, UniProt P24387+Q13324); assay: Dose Response confirmation of uHTS hits for small molecule antagonists of the CRF-binding protein and CRF-R2 receptor complex.; assay type: functional; details: read-out: IC50_Mean
T4 sequence (Q13324 whole entry): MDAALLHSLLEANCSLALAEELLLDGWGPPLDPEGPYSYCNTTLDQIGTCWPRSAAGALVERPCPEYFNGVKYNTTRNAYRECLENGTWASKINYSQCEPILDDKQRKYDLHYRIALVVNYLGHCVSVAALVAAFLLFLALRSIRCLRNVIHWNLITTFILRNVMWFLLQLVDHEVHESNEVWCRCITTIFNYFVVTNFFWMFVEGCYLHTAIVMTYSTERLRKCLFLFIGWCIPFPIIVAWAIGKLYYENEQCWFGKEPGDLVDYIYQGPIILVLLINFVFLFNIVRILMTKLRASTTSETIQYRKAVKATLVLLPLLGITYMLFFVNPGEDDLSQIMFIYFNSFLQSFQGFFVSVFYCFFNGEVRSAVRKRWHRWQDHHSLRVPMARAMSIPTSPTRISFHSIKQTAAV
T4 sequence (P24387 whole entry): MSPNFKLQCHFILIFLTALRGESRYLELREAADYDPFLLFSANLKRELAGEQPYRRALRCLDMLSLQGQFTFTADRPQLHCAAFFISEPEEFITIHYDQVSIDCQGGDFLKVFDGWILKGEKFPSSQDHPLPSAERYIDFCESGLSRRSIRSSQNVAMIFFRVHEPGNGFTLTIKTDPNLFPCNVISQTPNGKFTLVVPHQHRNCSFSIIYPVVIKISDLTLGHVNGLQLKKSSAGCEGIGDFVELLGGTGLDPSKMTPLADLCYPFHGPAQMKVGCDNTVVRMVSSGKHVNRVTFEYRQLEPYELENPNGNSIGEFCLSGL

[20] = CRF-BP/CRF-R2 complex antagonists, dose response, cell-based, uHTS hits, 384-well (AID 651639); assay type: functional, Homo sapiens; details: read-out: IC50_Mean
[21] = target: T4, Corticotropin-releasing factor receptor 2/Corticotropin-releasing factor-binding protein; assay: activators of CRF receptor 2 with binding protein – uHTS hits, confirmation (AID 602473); assay type: functional; details: read-out: EC50_Mean
Paired box protein Pax-8 = Paired box protein Pax-8 (Homo sapiens, UniProt Q06710); assay: inhibitors of PAX8-driven TPO luciferase reporter, dose response, RMG-I cells, cherry-pick (AID 687027); assay type: functional, cell-based;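 also: luciferase reporter driven by Pax8 target thyroperoxidase promoter measured by SteadyGlo luminescence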
Chain of Paired box protein Pax-8 (Q06710 whole entry): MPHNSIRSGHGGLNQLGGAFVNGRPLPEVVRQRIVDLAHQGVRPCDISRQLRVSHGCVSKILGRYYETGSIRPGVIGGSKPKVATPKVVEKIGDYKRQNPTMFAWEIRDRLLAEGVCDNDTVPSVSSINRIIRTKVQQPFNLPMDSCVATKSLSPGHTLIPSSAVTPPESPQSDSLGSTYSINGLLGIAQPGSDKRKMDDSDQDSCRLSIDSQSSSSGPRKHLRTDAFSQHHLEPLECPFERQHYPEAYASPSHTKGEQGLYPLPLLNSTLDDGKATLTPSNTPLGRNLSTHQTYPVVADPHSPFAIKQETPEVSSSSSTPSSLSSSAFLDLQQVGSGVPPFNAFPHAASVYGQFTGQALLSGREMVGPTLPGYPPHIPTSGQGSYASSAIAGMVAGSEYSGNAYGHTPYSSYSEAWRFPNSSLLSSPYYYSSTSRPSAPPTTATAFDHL

[22] = NIH:OVCAR-3 ovarian cancer cell cytotoxicity, dose response, PAX8 inhibitor project, plate reader, dry powder samples (AID 743044); assay type: functional, cell-based
[23] = cytotoxicity in OVCAR8 ovarian cancer cells, dose response, PAX8 project, cell-based, plate reader, dry powder samples (AID 743197); assay type: functional; details: OVCAR-8
Large T antigen = Large T antigen (Simian virus 40, UniProt P03070); assay type: functional, Betapolyomavirus macacae;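 also: Confirmatory-stage PubChem screen for compounds that inhibit SV40 T antigen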
Chain of Large T antigen (P03070 whole entry): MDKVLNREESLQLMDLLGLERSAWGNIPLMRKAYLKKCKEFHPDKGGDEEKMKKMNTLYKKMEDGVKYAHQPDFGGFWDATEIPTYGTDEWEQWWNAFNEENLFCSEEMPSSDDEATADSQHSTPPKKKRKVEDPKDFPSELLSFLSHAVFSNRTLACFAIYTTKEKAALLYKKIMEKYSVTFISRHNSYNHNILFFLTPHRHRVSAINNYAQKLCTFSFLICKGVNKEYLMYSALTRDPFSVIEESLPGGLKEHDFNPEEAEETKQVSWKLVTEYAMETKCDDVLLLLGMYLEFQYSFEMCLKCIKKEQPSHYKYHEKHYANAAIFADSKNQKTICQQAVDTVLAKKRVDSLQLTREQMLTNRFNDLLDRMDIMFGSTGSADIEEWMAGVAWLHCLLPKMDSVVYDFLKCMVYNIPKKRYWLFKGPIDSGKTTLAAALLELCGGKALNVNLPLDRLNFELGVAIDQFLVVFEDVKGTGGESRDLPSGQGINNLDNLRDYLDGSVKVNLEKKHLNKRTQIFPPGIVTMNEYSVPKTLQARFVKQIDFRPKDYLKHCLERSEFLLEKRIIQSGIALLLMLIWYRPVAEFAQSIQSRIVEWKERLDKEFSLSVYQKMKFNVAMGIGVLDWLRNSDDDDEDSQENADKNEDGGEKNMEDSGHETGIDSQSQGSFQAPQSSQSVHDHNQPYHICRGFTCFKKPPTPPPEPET

[24] = target: FAD-linked sulfhydryl oxidase ALR (Homo sapiens, UniProt P55789); assay: inhibitors of human ALR sulfhydryl oxidase, dose response, biochemical, H2O2 detection, luminescence, cherry-pick (AID 493248)
Chain of FAD-linked sulfhydryl oxidase ALR (P55789 whole entry): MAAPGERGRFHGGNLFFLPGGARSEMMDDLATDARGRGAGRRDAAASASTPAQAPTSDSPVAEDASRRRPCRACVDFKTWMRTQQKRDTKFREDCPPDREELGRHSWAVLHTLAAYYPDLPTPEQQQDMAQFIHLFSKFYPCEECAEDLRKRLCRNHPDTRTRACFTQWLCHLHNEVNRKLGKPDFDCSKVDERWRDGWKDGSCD

[25] = HepG2 cell cytotoxicity, dose response, cytotoxicity control for Shn3 inhibitor project, CellTiter-Glo, cherry-picked (AID 624134); assay type: functional, cell-based
[26] = target: T5, Hepatocyte nuclear factor 4-alpha (Homo sapiens, UniProt P41235); assay type: functional, cell-based;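 also: biochemical luminescence-based dose-response counterscreen measuring inhibition of HNF4 dimerization, run alongside a screen for blockers of ABHD5–perilipin-5 interaction; split luciferase complementation of HNF4 fusion proteins in cell lysate measuring dimerization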
T5 sequence (P41235 whole entry): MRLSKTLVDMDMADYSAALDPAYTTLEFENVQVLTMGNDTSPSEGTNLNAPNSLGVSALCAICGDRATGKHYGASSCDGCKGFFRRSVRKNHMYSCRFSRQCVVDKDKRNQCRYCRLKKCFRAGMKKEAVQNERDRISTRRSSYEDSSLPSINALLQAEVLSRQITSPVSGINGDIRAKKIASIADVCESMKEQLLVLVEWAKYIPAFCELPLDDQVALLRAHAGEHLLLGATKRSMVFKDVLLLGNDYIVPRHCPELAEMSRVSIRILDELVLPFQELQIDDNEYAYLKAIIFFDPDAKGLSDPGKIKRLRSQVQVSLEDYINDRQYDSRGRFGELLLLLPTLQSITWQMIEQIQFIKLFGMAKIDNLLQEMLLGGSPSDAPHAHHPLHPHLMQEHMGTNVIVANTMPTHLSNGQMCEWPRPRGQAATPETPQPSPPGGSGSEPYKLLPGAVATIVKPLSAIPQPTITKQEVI

[27] = inhibitors of PGC1a acetylation in cells, dose response, cell-based, cherry-picked samples (AID 720514); assay type: functional;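 also: potency may reflect raised or lowered acetylation signal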
[28] = control 3'UTR Renilla luciferase suppression, dose response, counter-screen for Shn3 inhibitor project, cell-based, Clone20-Shn3RL, cherry-picked (AID 624133); assay type: functional
[29] = Shn3 3'UTR reporter inhibitors, dose response, cell-based, Clone20 osteoblasts, firefly luciferase, cherry-picked (AID 624132); assay type: functional;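 also: firefly luciferase luminescence from reporter carrying the Shn3 3'UTR in osteoblasts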

Chain of Beta-galactosidase (Q8VNN2 whole entry): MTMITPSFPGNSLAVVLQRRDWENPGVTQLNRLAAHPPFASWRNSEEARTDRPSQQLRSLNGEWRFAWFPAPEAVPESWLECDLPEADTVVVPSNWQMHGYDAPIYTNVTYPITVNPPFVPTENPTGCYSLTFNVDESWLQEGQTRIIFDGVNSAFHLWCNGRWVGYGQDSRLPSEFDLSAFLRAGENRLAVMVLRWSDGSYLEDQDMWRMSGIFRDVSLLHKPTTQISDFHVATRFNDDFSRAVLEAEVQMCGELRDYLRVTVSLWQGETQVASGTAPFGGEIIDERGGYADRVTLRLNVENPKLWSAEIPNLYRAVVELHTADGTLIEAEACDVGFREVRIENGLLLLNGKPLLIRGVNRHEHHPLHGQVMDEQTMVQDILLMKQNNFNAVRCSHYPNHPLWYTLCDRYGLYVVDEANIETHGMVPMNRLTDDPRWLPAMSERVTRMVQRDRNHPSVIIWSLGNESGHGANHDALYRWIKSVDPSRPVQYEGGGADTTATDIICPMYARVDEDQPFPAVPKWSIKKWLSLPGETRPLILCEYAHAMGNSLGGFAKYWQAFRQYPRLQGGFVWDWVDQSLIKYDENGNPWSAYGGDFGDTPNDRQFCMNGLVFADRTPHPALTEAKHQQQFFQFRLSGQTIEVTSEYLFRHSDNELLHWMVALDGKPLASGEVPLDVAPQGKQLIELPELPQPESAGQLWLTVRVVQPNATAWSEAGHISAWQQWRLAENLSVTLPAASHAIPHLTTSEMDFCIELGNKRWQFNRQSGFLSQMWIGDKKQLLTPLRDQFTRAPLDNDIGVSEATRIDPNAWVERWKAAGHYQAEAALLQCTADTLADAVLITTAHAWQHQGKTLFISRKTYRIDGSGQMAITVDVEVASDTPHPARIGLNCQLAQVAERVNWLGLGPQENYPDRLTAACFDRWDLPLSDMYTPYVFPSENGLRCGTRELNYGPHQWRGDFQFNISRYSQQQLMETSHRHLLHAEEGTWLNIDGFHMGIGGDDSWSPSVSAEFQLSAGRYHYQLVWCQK

CC(C)N(C)c1ncnc2c1ncn2[C@H]1CN(Cc2ccc(Cl)cc2)C[C@@H](CO)O1
IC50 (Beta-galactosidase): > 80 µM (inactive)

CN(C)S(=O)(=O)[n+]1ccn(C)c1.c1ccc([B-](c2ccccc2)(c2ccccc2)c2ccccc2)cc1
IC50 [1]: 15.7 µM (active) | EC50 [2]: 1.77 µM (active) | EC50 [3]: 2.68 µM (active)

O=S(=O)(c1ccc(-c2cn3ccccc3n2)cc1)N1CCOCC1
EC50 (Kallikrein-7): > 69.5 µM (inactive)

CCOC(=O)N1CCN(C(=O)COc2ccc3c(c2)C(=O)CC(C)(C)O3)CC1
EC50 (Kallikrein-7): > 69.5 µM (inactive)

Fc1ccc(/N=c2\ssnc2Cl)c(F)c1
IC50 [4]: 25.3 µM (active) | IC50 [1]: 38.5 µM (inactive)

CCOc1ccc(N(CC(=O)NCCOc2ccc(C)cc2)S(=O)(=O)c2ccccc2)cc1
IC50 (Beta-galactosidase): > 80 µM (inactive)

CC(CN1CCOCC1)OC(=O)c1ccc(Br)cc1 (centres undefined)
IC50 (cells): 5.68 µM (active) | CC50 [5]: 38.2 µM (active) | EC50 [2]: 9.11 µM (active) | EC50 [3]: 6.73 µM (active)

O=C(Nc1ccc(NC(=O)c2ccccc2O)cc1)Nc1ccc(F)cc1F
EC50 (Kallikrein-7): 9.78 µM (active)

CCOC(=O)N1CCN(C(=O)CSc2ccc(Cl)cc2)CC1
IC50 (Beta-galactosidase): > 80 µM (inactive)

COc1cc(C(=O)O[C@H]2CC(C)=CC[C@@]3(C)CC[C@@](O)(C(C)C)[C@H]23)ccc1O [TEFERIN]
AC50 [6]: 35.6 µM (active) | AC50 [7]: 1.64 µM (active) | AC50 [8]: 4.06 µM (active) | AC50 [9]: 2.35 µM (active) | AC50 [10]: 1.19 µM (active)

COc1ccc(S(=O)(=O)Nc2ccc3c(c2)OCO3)cc1C
IC50 [11]: > 100 µM (active)

COC(=O)C1=C(C)NC(=O)/C1=C\c1cccs1
IC50 (Protein Tat): > 100 µM (active) | IC50 [11]: > 100 µM (active)

Oc1nc2cc(/N=C/c3c(O)ccc4cc(Br)ccc34)ccc2[nH]1
EC50 [12]: > 99 µM (inactive) | IC50 [4]: > 50 µM (not active) | EC50 [13]: 5.48 µM (active)

COc1ccc2c(C)nc(Nc3nc(C)c(C)c(O)n3)nc2c1
AC50 [6]: 7.32 µM (active) | AC50 [7]: 2.84 µM (active) | AC50 [8]: 8.79 µM (active) | CC50 [14]: 7.44 µM (active) | EC50 [15]: > 120 µM (not active) | EC50 [16]: 5.4 µM (active) | EC50 [17]: 4.69 µM (active) | AC50 [18]: 6.84 µM (active) | AC50 [10]: 10.3 µM (active)

Cc1c(NS(=O)(=O)c2ccccc2)ccc([N+](=O)[O-])c1Cl
IC50 [19]: 3.86 µM (active) | IC50 [20]: 13.2 µM (active) | EC50 [21]: > 53 µM (inactive)

Cc1cc([N+](=O)[O-])ccc1NCc1ccc2c(c1)OCCO2
IC50 [19]: 30.1 µM (active) | IC50 [20]: 19.9 µM (active) | EC50 [21]: > 53 µM (inactive)

C[C@@H]1CCCCO[C@H](CN(C)CC2CCCCC2)[C@H](C)CN([C@@H](C)CO)C(=O)c2cc(NC(=O)Nc3ccccc3)ccc2O1
AC50 (Paired box protein Pax-8): 10.9 µM (active) | AC50 [22]: 57 µM (active) | AC50 [23]: 61 µM (active)

O=C(Nc1cccc(F)c1)c1coc(=O)c(Br)c1
IC50 [19]: 9.89 µM (active) | IC50 [20]: 12.4 µM (active) | EC50 [21]: > 53 µM (inactive)

O=C1CC(N2CCN(c3ccc(O)cc3)CC2)C(=O)N1Cc1cccs1 (centres undefined)
EC50 [2]: 12 µM (active) | IC50 (Large T antigen): 5.41 µM (active) | EC50 [3]: 6.78 µM (active) | AC50 [24]: 0.123 µM (active)

CCOC(=O)c1ccc(NC(=O)CSCc2ccco2)cc1
IC50 (Protein Tat): 81.6 µM (inconclusive) | IC50 [11]: > 73.7 µM (active)

C#CCN(C[C@@H]1[C@@H](OC(=O)NC2CCCC2)[C@@H](OC(=O)NC2CCCC2)Cn2c(=O)ccc(=O)n21)S(=O)(=O)c1ccc(C)cc1
AC50 (Paired box protein Pax-8): 6.12 µM (active) | AC50 [25]: 23.1 µM (active) | IC50 [26]: 16.5 µM (inactive) | AC50 [27]: 3.87 µM (active) | AC50 [28]: 14.4 µM (active) | AC50 [29]: 12.9 µM (active)

Source: ChEMBL document CHEMBL1201862, “PubChem BioAssay data set” (2004)
